Measurements as given in patent publication US6362222B1, “Analgesic use of podophyllotoxin for treating pain conditions in female genital organs” (priority 1998, dated 2002).

Tests used:
[1] = Topical podophyllotoxin on vaginal peaks in patients with post-hysterectomic pain; format: in vivo, human
Protocol: In accordance with the invention podophyllotoxin can also be used for intense tenderness to touch and palpation in the upper vaginal corners with post-hysterectomic pain, sometimes also with bleed in. After the rinse with acetum the vaginal corners are treated with podophyllotoxin, and vaginal ointment can be applied on the treated areas if necessary. The treatment can be repeated at least three times if necessary, at intervals of either one day or one month.
At the end of about three years the patient returned to the gynecologic outpatient clinic and complained about a strong continual pain in the lower part of the abdomen and a pushing feeling in the rectum. […] The vaginal peaks were treated locally with podophyllotoxin three times at two days' intervals. Especially the right corner was very tender to palpation. After the third treatment there was no more pain.
(§1) The patient hade undergone hysterectomy, suffered from pain, a small muscular tumour and adhesions after endometriosis. The patient had suffered from incontinence for about a year. There had been no distinct inflammations. […] They were pencilled. Nevertheless, after about six months the patient returned to the clinic because of pain in the lower abdomen, the back and a sting in the urinary bladder. The sore vaginal peaks were pencilled with podophyllotoxin once more.
Post-hysterectomic pain was examined in 26 patients. The vagina was first washed with a 3% acetum solution and then the vaginal peaks were pencilled with podophyllotoxin. A vaginal ointment was used occasionally on the pencilled areas. The treatment was repeated 1 to 3 times at about one month's intervals.

[2] = Topical podophyllotoxin on sore vestibular (Bartholin's) glands in vulvodynia patients; format: in vivo, human
Description: In the treatment, the vagina is first washed with a 3% acetum solution. The vulva, especially Batrholin's glands are examined by means of colposcopy. A second object is a slightly uneven, netlike area located obliquely behind, at the sides of the outer mouth of the urethra. Sometimes small hyperemetic cavities, small vestibular glands are found in the vulvar region, which are not sore in a healthy person. In vulvodynia they are typically very tender to touch and red, ligulate and with embossed edges. In vulvodynia Bartholin's gland orifices are sometimes closed. These points often start bleeding at palpation.
In accordance with the invention, the sore glands are pencilled with podophyllotoxin. Any commonly used vaginal ointment is applied on the pencilled area. The treatment is repeated twice if necessary at an interval of about one month. The treatment is usually not effective at once, however, in the course of typically two weeks there is no more pain.
The gland orifices were pencilled with a 5% podophyllotoxin solution. The pain during intercourse disappeared at the end of a couple of weeks. After about two years the pain recurred. Podophyllotoxin was applied to the gland orifices anew. At the end of two months the lefthand, still tender gland orifice was pencilled once more.
The patient had undergone hysterectomy because of prolapse and extended cervix. However, the prolapse recurred (enterocele), and was resectioned from below. After the surgery the patient suffered from vaginal pain, which was stronger on the left side. There was no inflammation, the pain persisted. A gynecologist made repeated examinations, found nothing wrong and consulted a neurologist, who made the diagnosis inexplicable postoperative pain. […] Podophyllotoxin was applied twice at one month's interval and once more the following day.
as §1
A total of 151 patients were treated over a period of two years, and among these 75% had typical vulvodynia symptoms and the remainder atypical other symptoms, such as disorders of the urinary tracts, vaginal dryness, itching and recurrent candidosis. However, intense tenderness to touch of the vestibular glands was typical for all of the patients.
All of the patients were treated in the same way: first the vagina was washed with a 3% solution of acetum, the sore glands were treated with podophyllotoxin and vaginal ointment was applied on this. 46 patients were treated only once and 6 patients were treated 10 times, the patients were treated 2.6 times on the average.

## COc1cc([C@@H]2c3cc4c(cc3[C@H](O)[C@H]3COC(=O)[C@H]23)OCO4)cc(OC)c1OC [podophyllotoxin]
[1]; Example 2, same patient about three years later, vaginal peaks treated three times at two days' intervals, after the third treatment
  pain after treatment of vaginal peaks: no more pain
[1]; Example 3, control one month after last pencilling of vaginal peaks
  incontinence after treatment of vaginal peaks: disappeared
[1]; Example 3, sore vaginal peaks pencilled again about six months later, control one month later
  patient's state at control after treatment of vaginal peaks: completely recovered
[1]; Example 5, 26 patients, vaginal peaks pencilled 1 to 3 times at about one month's intervals, maximum control period 9 months
  number of patients remaining free of symptoms during the control period: 17 patients
[1]; upper vaginal corners treated, repeated at least three times if necessary
  results of treatment (general statement): extremely good
[2]; Example 1, one patient, Bartholin's gland orifices pencilled with 5% podophyllotoxin solution, at the end of a couple of weeks
  pain during intercourse after treatment: disappeared
[2]; Example 1, recurrence after about two years, gland orifices pencilled anew, left orifice once more after two months, in the course of a couple of weeks
  pain after repeat treatment of recurrence: disappeared completely
[2]; Example 2, one patient, postoperative vaginal pain, left Bartholin's gland and right side of urethra, applied twice at one month's interval and once more the following day
  symptoms after treatment: free of symptoms
[2]; Example 3, one patient, sore glands in the introitus pencilled once, after one month
  pain in the glands after treatment: no pain in the glands
[2]; Example 4, 151 patients treated, 2.6 times on average, about two weeks after the treatment
  number of patients free of symptoms: about one hundred
[2]; Example 4, 151 patients treated, follow-up maximum more than 5 years
  number of patients considered to have probably recovered: 40 patients
[2]; directly after treatment, before relief in the course of a couple of weeks
  immediate effect on pain: increases the pain
[2]; sore glands pencilled, repeated twice if necessary at about one month interval, in the course of typically two weeks
  pain after treatment (general statement): no more pain
[2]; vestibulitis type condition
  pain at small red cavities of the front part of the vulva: relieved
